Results reported in paper PMC11541474, “Toward New Therapeutics for Visceral Leishmaniasis: Efficacy and Mechanism of Action of Amides Inspired by Gibbilimbol B” (ACS Omega, 2024).

Legend:
[1] = in vitro mammalian toxicity against NCTC cells; assay type: cell-based; settings: 50% cytotoxic concentration, read-out: Cc50 Nctc (μm) ± SD
Protocol: (§1) Evaluation of in vitro mammalian toxicity against NCTC cells was performed as previously described.[40] The selectivity index was determined using the following equation: CC50 against NCTC cells/EC50 against amastigotes.[44] The CC50 and EC50 values were calculated using sigmoidal dose–response curves using Graph Pad Prism 5.0 software. One-way ANOVA testing with Tukey’s multiple comparison tests were used for evaluation of the statistical significance (p-value) of differences between the samples, which were tested in duplicate and all assays were repeated at least twice.

[2] = system: L. (L.) infantum intracellular amastigotes; assay: ex-vivo assay using intracellular amastigotes of L. (L.) infantum; assay type: cell-based, Leishmania (L.) infantum; settings: for EC50: Leishmania infantum, L. (L.) infantum intracellular amastigotes, read-out: Ec50 Amastigote (μm) ± SD; for S.I. amastigote (selectivity index): CC50 against NCTC cells/EC50 against amastigotes
Protocol: as §1, with “activity” for “mammalian toxicity”, “promastigote and amastigote forms of L. (L.) infantum” for “NCTC cells”, “reported assays.[40]−[43]” for “described.[40] The selectivity index was determined using the following equation: CC50 against NCTC cells/EC50 against amastigotes.[44]”

[3] = system: L. (L.) infantum promastigotes; assay: in vitro activity against promastigote forms of L. (L.) infantum; assay type: cell-based, Leishmania (L.) infantum; settings: for EC50: Leishmania infantum, L. (L.) infantum promastigotes, read-out: Ec50 Promastigote (μm) ± SD
Protocol: as §1, with “activity” for “mammalian toxicity”, “promastigote and amastigote forms of L. (L.) infantum” for “NCTC cells”, “reported assays.[40]−[43]” for “described.[40] The selectivity index was determined using the following equation: CC50 against NCTC cells/EC50 against amastigotes.[44]”

[4] = system: L. (L.) infantum promastigotes; assay type: cell-based, Leishmania (L.) infantum; settings: 9 at 141.5 μM, 10 at 110.1 μM, after 240 min
Protocol: Figure 5 Evaluation of ROS in promastigotes of L. (L.) infantum treated with compounds 9 (141.5 μM) or 10 (110.1 μM). […]
Measurements of ROS were conducted as previously reported.[48] Briefly, promastigotes were treated with compounds 9 (141.5 μM) or 10 (110.1 μM) in HBSS+Glu at 24 °C using H2DCFDA (Molecular Probes). Fluorescence was measured using a fluorimetric microplate reader (FilterMax F5Multi-Mode, Molecular Devices) with excitation and emission filters at 485 and 520 nm, respectively.[48] Untreated and treated parasites (H2O2 - 40 μM) were used as negative and positive controls, respectively.

[5] = system: L. (L.) infantum promastigotes; assay type: cell-based, Leishmania (L.) infantum
Description: Changes in the plasma membrane integrity of Leishmania spp. can lead to cell death due to pore formation, pH imbalance, and nutrient-transport failure. Initially, the fluorescent probe Sytox Green was employed to analyze the permeability of the plasma membrane. […] Untreated parasites were used as a negative control for normalization (0% permeabilization) whereas the nonionic surfactant Triton X-100 was used for as positive control (100% permeabilization).
Figure 4 Plasma membrane permeability in L. (L.) infantum promastigotes after 4 h of treatment with compound (A) 9 (141.5 μM) or (B) 10 (110.1 μM), using the fluorescent probe Sytox Green (p < 0.0001). Negative control: untreated parasites; positive control: Triton X-100 (TX-100).
Assays for determination of plasma membrane integrity of L. (L.) infantum were conducted as previously reported.[46] Briefly, compounds 9 (141.5 μM) and 10 (110.1 μM) were added to different wells and the resulting fluorescence was measured using a fluorimetric microplate reader (FilterMax F5Multi-Mode, Molecular Devices). Triton X-100 (0.5%, v/v) and untreated parasites were used as positive negative controls, respectively.[47]

| Compound | CC50 [1] | EC50 [2] | activity against promastigotes (in words) [3] | EC50 [3] | S.I. amastigote (selectivity index) [2] | ROS levels compared with negative control (H2DCFDA) [4] | permeabilization of the plasma membrane (Sytox Green) [5] |
| --- | --- | --- | --- | --- | --- | --- | --- |
| CCC/C=C/CCCNC(=O)c1ccccc1 [Compound 1, (E)-N-(Oct-4-en-1-yl)benzamide] | > 200 µM | > 100 µM | inactive | > 100 µM | – | – | – |
| CCC/C=C/CCCNC(=O)c1ccc(C)cc1 [Compound 2, (E)-4-Methyl-N-(oct-4-en-1-yl)benzamide] | > 200 µM | > 100 µM | – | 66.9 ± 6.4 µM | – | – | – |
| CCC/C=C/CCCNC(=O)c1ccc(OC)cc1 [Compound 3, (E)-4-Methoxy-N-(oct-4-en-1-yl)benzamide] | > 200 µM | > 100 µM | inactive | > 150 µM | – | – | – |
| CCC/C=C/CCCNC(=O)c1ccc(F)cc1 [Compound 4, (E)-4-Fluoro-N-(oct-4-en-1-yl)benzamide] | > 200 µM | > 100 µM | – | 67.4 ± 1.3 µM | – | – | – |
| CCC/C=C/CCCNC(=O)c1ccc(Cl)cc1 [Compound 5, (E)-4-Chloro-N-(oct-4-en-1-yl)benzamides] | > 200 µM | > 100 µM | – | 73.3 ± 4.3 µM | – | – | – |
| CCC/C=C/CCCNC(=O)c1ccc(C(C)(C)C)cc1 [Compound 6, (E)-4-(tert-butyl)-N-(oct-4-en-1-yl)benzamide] | > 200 µM | > 100 µM | – | 66 ± 1 µM | – | – | – |
| CCC/C=C/CCCNC(=O)c1ccc([N+](=O)[O-])cc1 [Compound 7, (E)-4-Nitro-N-(oct-4-en-1-yl)benzamide] | 158 ± 37.3 µM | > 100 µM | – | 49.8 ± 4 µM | – | – | – |
| CCCCC(CC)CNC(=O)c1ccc(F)cc1 (centres unmarked) [Compound 8, N-(2-Ethylhexyl)-4-fluorobenzamide] | 156.8 ± 1 µM | > 100 µM | – | 64.1 ± 3.5 µM | – | – | – |
| CCCCC(CC)CNC(=O)c1ccc(C)cc1 (centres unmarked) [Compound 11, N-(2-Ethylhexyl)-4-methylbenzamide] | > 200 µM | > 100 µM | – | 66.3 ± 6 µM | – | – | – |
| CCCCC(CC)CNC(=O)c1ccc(C(C)(C)C)cc1 (centres unmarked) [Compound 12, N-(2-Ethylhexyl)-4-(tert-butyl)benzamide] | > 200 µM | 5.1 ± 1.9 µM | inactive | > 150 µM | >39.2 | – | – |
| CCCCCC/C=C/CCc1ccc(O)cc1 [Gibbilimbol B, gibbilimbol B] | > 200 µM | 95.1 ± 1.5 µM | – | 99.4 ± 2.1 µM | >2.1 | – | – |
| CCCCCCCCCCCCCCCCOP(=O)([O-])OCC[N+](C)(C)C [Miltefosine, miltefosine, reference compound] | 120 ± 4.2 µM | 6.5 ± 3 µM | – | 5.1 ± 0.6 µM | 18.4 | – | – |
| [N-]=[N+]=[N-].[Na+] [Sodium azide, reference compound] | – | – | – | – | – | maximum production of ROS | – |
| Triton X-100 [reference compound] | – | – | – | – | – | – | maximum permeabilization |
